Measured values: PMC5278707, “Structure-Activity Relationships of a Series of Echinocandins and the Discovery of CD101, a Highly Stable and Soluble Echinocandin with Distinctive Pharmacokinetic Properties” (Antimicrobial Agents and Chemotherapy, 2017)
In brackets after ≈: the same amount, converted by molar mass. Where two headings read alike, the source gives them in different places.

What was measured:
[1] = single-dose pharmacokinetics in beagle dogs; conditions: male, beagle, dog, in vivo, iv, 1.4 mg/kg
Protocol: Four male, nonnaive beagle dogs received a single i.v. infusion (1.4 mg/kg) of test article over 10 min via a catheter placed in the cephalic vein. Blood draws (1.0 ml) were taken at 0.083, 0.33, 0.75, 1.5, 4.5, 12, 24, and 48 h. An additional blood draw at 72 h was obtained for CD101. Blood draws were taken from the jugular vein and were collected into K3 EDTA tubes. Following blood collection, the samples were immediately inverted several times and were held on wet ice pending centrifugation. The samples were centrifuged within ∼30 min of collection under refrigeration (∼5°C for ∼10 min at ∼2,000 g) to obtain plasma. The plasma samples were frozen immediately on dry ice after separation and were stored at approximately −70°C until analysis. Levels of test article in the plasma samples were measured by quantitative liquid chromatography-tandem mass spectrometry (LC-MS/MS) analysis compared to a calibration curve and an internal standard. Pharmacokinetic parameters were calculated from the plasma concentration-time data using standard noncompartmental methods and utilizing WinNonlin analysis software.

Candida albicans R303 = experiment: mouse model of disseminated candidiasis, fungal burden in kidneys; format: in vivo; conditions: kidneys at 24 h; for reductions in fungal burden vs infected control (statistical significance): neutropenic CD-1 mice, 0.5, 1.5 or 4.5 mg/kg 2 h after inoculation; for fungal burden relative to limit of detection: neutropenic CD-1 mice, 0.5, 1.5 or 4.5 mg/kg
Protocol: Candida albicans R303 was grown on Sabouraud dextrose agar (SDA) plates for 24 h at 35°C. Colonies were transferred to phosphate-buffered saline (PBS) and diluted to 3.8 × 10^5 CFU/ml. Female CD-1 mice (Charles River Laboratories, Portage, MI) were rendered neutropenic via injection with cyclophosphamide (150 mg/kg) 5 days and 2 days prior to inoculation. Each animal was infected by injecting 0.1 ml of inoculum into the tail vein. In the treatment groups, animals received 0.5, 1.5, or 4.5 mg/kg of test article 2 h after inoculation. Two groups of untreated, infected controls were used to evaluate fungal burden: at 2 h when test articles were administered in the treatment groups and at 24 h when the treatment groups were sacrificed. Kidneys were harvested at 2 h in one untreated control group and at 24 h in all other groups. The kidneys were homogenized in 2 ml of sterile phosphate-buffered saline, and 0.1-ml aliquots were spread on SDA plates and incubated at 35°C overnight. Fungal burden was determined based on the log10 C. albicans CFU counts from paired kidneys. Data were analyzed using a one-way analysis of variance (ANOVA) and the Dunnett multiple comparisons test comparing the test articles to the infected control group (GraphPad InStat version 3.1; GraphPad Software, San Diego, CA).

[2] = system: Aspergillus clavatus ATCC 10058; experiment: CLSI broth microdilution (M38-A2) MEC/MIC; format: cell-based; conditions: read at 68 h
Protocol: All yeast and mold isolates were obtained from the American Type Culture Collection (ATCC). Isolates were plated on an agar medium to verify purity, and single colonies were picked. Aspergillus isolates were resubcultured on potato dextrose slants and incubated for 7 days at 35°C. Candida isolates were streaked on SDA plates and incubated for 24 h at 35°C. RPMI 1640 medium (HyClone Laboratories, Logan, UT) and the inoculum for each organism were prepared according to Clinical and Laboratory Standards Institute (CLSI) guidelines ([27][–][29]). Stock solutions for all test articles were prepared in 100% dimethyl sulfoxide (DMSO). Susceptibility testing was performed using CLSI broth microdilution methods for Candida (M27-A3) and Aspergillus (M38-A2). Amphotericin B was tested at a range of 0.06 to 64 μg/ml; all other antifungal agents were tested at 0.015 to 16 μg/ml. […] MIC values are reported as the lowest drug concentration to yield a 50% reduction in the growth of Candida species tested compared to the control well. Minimum effective concentration (MEC) values are reported as the lowest drug concentration to yield the stunted hyphal growth of Aspergillus species tested compared to that of the control well.

[3] = system: Aspergillus flavus ATCC 22546; experiment: CLSI broth microdilution (M38-A2) MEC/MIC; format: cell-based
Protocol: (§1) All yeast and mold isolates were obtained from the American Type Culture Collection (ATCC). Isolates were plated on an agar medium to verify purity, and single colonies were picked. Aspergillus isolates were resubcultured on potato dextrose slants and incubated for 7 days at 35°C. Candida isolates were streaked on SDA plates and incubated for 24 h at 35°C. RPMI 1640 medium (HyClone Laboratories, Logan, UT) and the inoculum for each organism were prepared according to Clinical and Laboratory Standards Institute (CLSI) guidelines ([27][–][29]). Stock solutions for all test articles were prepared in 100% dimethyl sulfoxide (DMSO). Susceptibility testing was performed using CLSI broth microdilution methods for Candida (M27-A3) and Aspergillus (M38-A2). Amphotericin B was tested at a range of 0.06 to 64 μg/ml; all other antifungal agents were tested at 0.015 to 16 μg/ml. Plates were incubated at 35°C and were read from the bottom using a plate viewer after 24 and 48 h for Candida and after 48 h for Aspergillus. MIC values are reported as the lowest drug concentration to yield a 50% reduction in the growth of Candida species tested compared to the control well. Minimum effective concentration (MEC) values are reported as the lowest drug concentration to yield the stunted hyphal growth of Aspergillus species tested compared to that of the control well.

[4] = system: Aspergillus candidus ATCC 13686; experiment: CLSI broth microdilution (M38-A2) MEC/MIC; format: cell-based
Protocol: as §1

[5] = system: Aspergillus niger ATCC 16888; experiment: CLSI broth microdilution (M38-A2) MEC/MIC; format: cell-based
Protocol: as §1

[6] = system: Aspergillus ochraceus ATCC 96919; experiment: CLSI broth microdilution (M38-A2) MEC/MIC; format: cell-based
Protocol: as §1

[7] = system: Aspergillus fumigatus ATCC 204305; experiment: CLSI broth microdilution (M38-A2) MEC/MIC; format: cell-based
Protocol: as §1

[8] = system: Aspergillus fumigatus ATCC MYA-3626; experiment: CLSI broth microdilution (M38-A2) MEC/MIC; format: cell-based; conditions: 48 h
Protocol: as §1

[9] = system: Candida guilliermondii ATCC 34134; experiment: CLSI broth microdilution (M27-A3) MIC; format: cell-based; conditions: Meyerozyma guilliermondii, ATCC34134, 50% reduction in growth
Protocol: as §1

[10] = system: Candida tropicalis ATCC 90874; experiment: CLSI broth microdilution (M27-A3) MIC; format: cell-based; conditions: 50% reduction in growth
Protocol: as §1

[11] = system: Candida lusitaniae ATCC 34134; experiment: CLSI broth microdilution (M27-A3) MIC; format: cell-based; conditions: Clavispora lusitaniae, ATCC34134, 50% reduction in growth, read-out: MIC
Protocol: as §1

[12] = system: Candida parapsilosis ATCC 22019; experiment: CLSI broth microdilution (M27-A3) MIC; format: cell-based; conditions: Lodderomyces parapsilosis, ATCC22019, 50% reduction in growth
Protocol: as §1

[13] = system: Candida albicans ATCC 90028; experiment: CLSI broth microdilution (M27-A3) MIC; format: cell-based; conditions: 50% reduction in growth
Protocol: as §1

[14] = system: Candida krusei ATCC 14243; experiment: CLSI broth microdilution (M27-A3) MIC; format: cell-based; conditions: Pichia kudriavzevii, ATCC14243, 50% reduction in growth
Protocol: as §1

[15] = system: Candida glabrata ATCC 90030; experiment: CLSI broth microdilution (M27-A3) MIC; format: cell-based; conditions: Nakaseomyces glabratus
Protocol: as §1

Aspergillus spp. = experiment: CLSI broth microdilution (M38-A2) MEC, whole panel; format: cell-based; conditions: 48 h, summary of Table 3
Protocol: as §1

SMILES	Vd [1] [L/kg]	half-life [1] [h]	reductions in fungal burden vs infected control (statistical significance) (Candida albicans R303)	fungal burden relative to limit of detection (Candida albicans R303)	MIC ([9]; 24 h) [µg/mL]	MIC ([9]; 48 h) [µg/mL]	MIC ([10]; ATCC90874, 24 h) [µg/mL]	MIC ([10]; ATCC90874, 48 h) [µg/mL]	MIC ([11]; 24 h) [µg/mL]	MIC ([11]; 48 h) [µg/mL]	MIC ([12]; 24 h) [µg/mL]	MIC ([12]; 48 h) [µg/mL]	MIC ([13]; ATCC90028, 24 h) [µg/mL]	MIC ([13]; ATCC90028, 48 h) [µg/mL]	MIC ([14]; 24 h) [µg/mL]	MIC ([14]; 48 h) [µg/mL]	other results
CCCCCOc1ccc(-c2ccc(-c3ccc(C(=O)N[C@H]4C[C@@H](O)[C@@H](OCCOCCO)NC(=O)[C@@H]5[C@@H](O)[C@@H](C)CN5C(=O)[C@H]([C@@H](C)O)NC(=O)[C@H]([C@H](O)[C@@H](O)c5ccc(O)cc5)NC(=O)[C@@H]5C[C@@H](O)CN5C(=O)[C@H]([C@@H](C)O)NC4=O)cc3)cc2)cc1 [Compound 4]	0.361	28.9	statistically significant (P < 0.01) reductions in fungal burden at all doses	below the limit of detection for at least one of the doses	–	–	–	–	–	–	–	–	–	–	–	–	–
C[C@@H]1[C@H](O)[C@@H](C)/C=C/C=C/C=C/C=C/C=C/C=C/C=C/[C@H](O[C@@H]2O[C@H](C)[C@@H](O)[C@H](N)[C@@H]2O)C[C@@H]2O[C@](O)(C[C@@H](O)C[C@@H](O)[C@H](O)CC[C@@H](O)C[C@@H](O)CC(=O)O[C@H]1C)C[C@H](O)[C@H]2C(=O)O [Amphotericin B, amphotericin B]	–	–	–	–	≤ 0.06	≤ 0.06	0.25 (≈ 0.271 µM)	0.25 (≈ 0.271 µM)	≤ 0.06	≤ 0.06	0.25 (≈ 0.271 µM)	0.5 (≈ 0.541 µM)	≤ 0.06	0.125 (≈ 0.135 µM)	0.25 (≈ 0.271 µM)	0.5 (≈ 0.541 µM)	MIC ([2]; Aspergillus clavatus, ATCC10058): ≤ 0.06 µg/mL; MIC ([3]; Aspergillus flavus, ATCC22546, 48 h): 1 µg/mL (≈ 1.08 µM); MIC ([4]; Aspergillus candidus, ATCC13686, 48 h): ≤ 0.06 µg/mL; MIC ([5]; Aspergillus niger, ATCC16888, 48 h): 0.125 µg/mL (≈ 0.135 µM); MIC ([6]; Aspergillus ochraceus, ATCC96919, 48 h): 2 µg/mL (≈ 2.16 µM); MIC ([7]; Aspergillus fumigatus, ATCC204305, 48 h): 1 µg/mL (≈ 1.08 µM); MIC ([8]; Aspergillus fumigatus): 1 µg/mL (≈ 1.08 µM); MIC ([15]; ATCC90030, 24 h, 50% reduction in growth, read-out: MIC): 0.06 µg/mL (≈ 0.0649 µM); MIC ([15]; ATCC90030, 48 h, 50% reduction in growth, read-out: MIC): 0.25 µg/mL (≈ 0.271 µM)
CCCCCOc1ccc(-c2ccc(-c3ccc(C(=O)N[C@H]4C[C@@H](O)[C@@H](NCCNCCO)NC(=O)[C@@H]5[C@@H](O)[C@@H](C)CN5C(=O)[C@H]([C@@H](C)O)NC(=O)[C@H]([C@H](O)[C@@H](O)c5ccc(O)cc5)NC(=O)[C@@H]5C[C@@H](O)CN5C(=O)[C@H]([C@@H](C)O)NC4=O)cc3)cc2)cc1 [Compound 5]	0.687	21	statistically significant (P < 0.01) reductions in fungal burden at all doses	below the limit of detection for at least one of the doses	–	–	–	–	–	–	–	–	–	–	–	–	–
CCCCCOc1ccc(-c2ccc(-c3ccc(C(=O)N[C@H]4C[C@@H](O)[C@@H](OCCOCCN)NC(=O)[C@@H]5[C@@H](O)[C@@H](C)CN5C(=O)[C@H]([C@@H](C)O)NC(=O)[C@H]([C@H](O)[C@@H](O)c5ccc(O)cc5)NC(=O)[C@@H]5C[C@@H](O)CN5C(=O)[C@H]([C@@H](C)O)NC4=O)cc3)cc2)cc1 [Compound 3]	0.627	33.7	–	below the limit of detection for at least one of the doses	–	–	–	–	–	–	–	–	–	–	–	–	–
CCCCCOc1ccc(-c2ccc(-c3ccc(C(=O)N[C@H]4C[C@@H](O)[C@@H](OCCOCCOC)NC(=O)[C@@H]5[C@@H](O)[C@@H](C)CN5C(=O)[C@H]([C@@H](C)O)NC(=O)[C@H]([C@H](O)[C@@H](O)c5ccc(O)cc5)NC(=O)[C@@H]5C[C@@H](O)CN5C(=O)[C@H]([C@@H](C)O)NC4=O)cc3)cc2)cc1 [Compound 2]	0.331	18.9	–	–	–	–	–	–	–	–	–	–	–	–	–	–	–
CC[C@H](C)C[C@H](C)CCCCCCCCC(=O)N[C@H]1C[C@@H](O)[C@@H](NCCN)NC(=O)[C@@H]2[C@@H](O)CCN2C(=O)[C@H]([C@H](O)CCN)NC(=O)[C@H]([C@H](O)[C@@H](O)c2ccc(O)cc2)NC(=O)[C@@H]2C[C@@H](O)CN2C(=O)[C@H]([C@@H](C)O)NC1=O [Caspofungin, caspofungin]	–	–	–	–	0.25 (≈ 0.229 µM)	> 16	0.06 (≈ 0.0549 µM)	0.06 (≈ 0.0549 µM)	0.25 (≈ 0.229 µM)	0.25 (≈ 0.229 µM)	0.25 (≈ 0.229 µM)	0.5 (≈ 0.457 µM)	0.06 (≈ 0.0549 µM)	0.06 (≈ 0.0549 µM)	0.25 (≈ 0.229 µM)	0.5 (≈ 0.457 µM)	MEC values against all Aspergillus species tested (Aspergillus spp.): ≤ 0.125 µg/mL; MEC ([2]; stunted hyphal growth): 0.125 µg/mL; MEC ([3]; 48 h, stunted hyphal growth): 0.06 µg/mL; MEC ([4]; 48 h, stunted hyphal growth): ≤0.015 µg/mL; MEC ([5]; 48 h, stunted hyphal growth): 0.06 µg/mL; MEC ([6]; 48 h, stunted hyphal growth): 0.06 µg/mL; MEC ([7]; 48 h, stunted hyphal growth): 0.125 µg/mL; MEC ([8]; stunted hyphal growth): 0.125 µg/mL; MIC ([15]; ATCC90030, 24 h): 0.125 µg/mL (≈ 0.114 µM); MIC ([15]; ATCC90030, 48 h): 0.125 µg/mL (≈ 0.114 µM)
